Values joined by “and” are separate entries in the source; they are usually repeats but may differ in a detail not shown here. Equal values may be shown once.
How the values were obtained:
Type in all cases: cell-based
Pythium ultimum = Pythium ultimum (Damping Off) growth inhibition, microtiter plate, photometric
Experimental: Pythium ultimum (Damping Off):
Mycelial fragments of the fungus, prepared from a fresh liquid culture, were directly mixed into nutrient broth (potato dextrose broth). After placing a (DMSO) solution of the test compounds into a microtiter plate (96-well format) the nutrient broth containing the fungal spores was added.

Rhizoctonia solani = Rhizoctonia solani (Foot Rot, Damping-Off) growth inhibition, microtiter plate, photometric
Experimental: Rhizoctonia solani (Foot Rot, Damping-Off):
Mycelial fragments of the fungus from cryogenic storage were directly mixed into nutrient broth (potato dextrose broth). After placing a (DMSO) solution of the test compounds into a microtiter plate (96-well format) the nutrient broth containing the fungal spores was added.

Gaeumannomyces graminis = Gaeumannomyces graminis growth inhibition, microtiter plate, photometric
Experimental: Mycelial fragments of the fungus from cryogenic storage were directly mixed into nutrient broth (potato dextrose broth). After placing a (DMSO) solution of the test compounds into a microliter plate (96-well format) the nutrient broth containing the fungal spores was added.

[1] = tested on: Glomerella lagenarium (syn. Colletotrichum lagenarium); assay: Glomerella lagenarium (Anthracnose of Cucurbits) growth inhibition, microtiter plate, photometric; details: alone
Experimental: Glomerella lagenarium (syn. Colletotrichum lagenarium), Anthracnose of Cucurbits:
(§1) Conidia of the fungus from cryogenic storage were directly mixed into nutrient broth (potato dextrose broth). After placing a (DMSO) solution of the test compounds into a microtiter plate (96-well format) the nutrient broth containing the fungal spores was added.

Septoria tritici = Septoria tritici (Leaf Blotch) growth inhibition, microtiter plate, photometric; details: for AVERAGE DEAD IN %: alone; for AVERAGE DEAD IN % Chlorothalonil: Chlorothalonil alone; for AVERAGE DEAD IN % A1: A1 alone
Experimental: Septoria tritici (Leaf Blotch):
as §1

[2] = tested on: Mycosphaerella arachidis (syn. Cercospora arachidicola); assay: Mycosphaerella arachidis (Brown Leaf Spot of Groundnut) growth inhibition, microtiter plate, photometric; details: alone
Experimental: Mycosphaerella arachidis (syn. Cercospora arachidicola), Brown Leaf Spot of Groundnut (Peanut):
as §1

Fusarium culmorum = Fusarium culmorum (Root Rot) growth inhibition, microtiter plate, photometric; details: alone
Experimental: Fusarium culmorum (Root Rot):
as §1

[3] = single compound at 0.0390625 ppm AI
[4] = single compound at 0.078125 ppm AI
[5] = single compound at 0.15625 ppm AI
[6] = single compound at 0.3125 ppm AI
[7] = single compound at 0.625 ppm AI
[8] = applied alone, 0.0390625 ppm AI

Structure (SMILES): N#Cc1c(Cl)c(Cl)c(Cl)c(C#N)c1Cl [Chlorothalonil, reference compound]
- AVERAGE DEAD IN % (Pythium ultimum; single compound at 0.25 ppm AI): 0%
- AVERAGE DEAD IN % (Pythium ultimum; single compound at 0.5 ppm AI): 0%
- AVERAGE DEAD IN % (Pythium ultimum; single compound at 1 ppm AI): 0%
- AVERAGE DEAD IN % (Rhizoctonia solani; applied alone, 0.5 ppm AI): 70%
- AVERAGE DEAD IN % (Rhizoctonia solani; applied alone, 1 ppm AI): 90%
- AVERAGE DEAD IN % (Rhizoctonia solani; single compound at 1 ppm AI): 0%
- AVERAGE DEAD IN % (Rhizoctonia solani; single compound at 2 ppm AI): 0%
- AVERAGE DEAD IN % (Gaeumannomyces graminis; single compound at 0.25 ppm AI): 0%
- AVERAGE DEAD IN % (Gaeumannomyces graminis; single compound at 1 ppm AI): 50% and 100% and 90%
- AVERAGE DEAD IN % (Gaeumannomyces graminis; single compound at 2 ppm AI): 90% and 100%
- AVERAGE DEAD IN % ([1]; 0.25 ppm AI): 50% and 90%
- AVERAGE DEAD IN % ([1]; 0.5 ppm AI): 70%
- AVERAGE DEAD IN % (Septoria tritici; 0.25 ppm AI): 0%
- AVERAGE DEAD IN % (Septoria tritici; 0.5 ppm AI): 50%
- AVERAGE DEAD IN % Chlorothalonil (Septoria tritici; 0.03125 ppm AI): 0%
- AVERAGE DEAD IN % Chlorothalonil (Septoria tritici; 0.0625 ppm AI): 70%
- AVERAGE DEAD IN % Chlorothalonil (Septoria tritici; 0.25 ppm AI): 20%
- AVERAGE DEAD IN % (Septoria tritici; 1 ppm AI): 70%
- AVERAGE DEAD IN % ([2]; 0.125 ppm AI): 20%
- AVERAGE DEAD IN % ([2]; 0.5 ppm AI): 70%
- AVERAGE DEAD IN % ([2]; 0.25 PPM AI): 20%
- AVERAGE DEAD IN % ([2]; 0.5 PPM AI): 100% and 70%
- AVERAGE DEAD IN % (Fusarium culmorum; 0.5 PPM AI): 0%

Structure (SMILES): Cc1cc(C2=NOC(c3cc(Cl)cc(Cl)c3)(C(F)(F)F)C2)ccc1C(=O)NC1(C)CSC1 (racemic) [A1]
- AVERAGE DEAD IN % (Pythium ultimum; [3]): 0%
- AVERAGE DEAD IN % (Pythium ultimum; [4]): 0%
- AVERAGE DEAD IN % (Pythium ultimum; [5]): 0%
- AVERAGE DEAD IN % (Pythium ultimum; [6]): 0%
- AVERAGE DEAD IN % (Pythium ultimum; [7]): 0%
- AVERAGE DEAD IN % (Pythium ultimum; single compound at 1.25 ppm AI): 0%
- AVERAGE DEAD IN % (Pythium ultimum; single compound at 2.5 ppm AI): 0%
- AVERAGE DEAD IN % (Pythium ultimum; single compound at 5 ppm AI): 0%
- AVERAGE DEAD IN % (Pythium ultimum; single compound at 10 ppm AI): 0%
- AVERAGE DEAD IN % (Pythium ultimum; single compound at 20 ppm AI): 0%
- AVERAGE DEAD IN % (Rhizoctonia solani; [8]): 0%
- AVERAGE DEAD IN % (Rhizoctonia solani; applied alone, 0.078125 ppm AI): 0%
- AVERAGE DEAD IN % (Rhizoctonia solani; applied alone, 0.15625 ppm AI): 0%
- AVERAGE DEAD IN % (Rhizoctonia solani; applied alone, 0.3125 ppm AI): 0%
- AVERAGE DEAD IN % (Rhizoctonia solani; applied alone, 0.625 ppm AI): 0%
- AVERAGE DEAD IN % (Rhizoctonia solani; applied alone, 1.25 ppm AI): 0%
- AVERAGE DEAD IN % (Rhizoctonia solani; applied alone, 2.5 ppm AI): 0%
- AVERAGE DEAD IN % (Rhizoctonia solani; applied alone, 5 ppm AI): 0%
- AVERAGE DEAD IN % (Rhizoctonia solani; applied alone, 10 ppm AI): 0%
- AVERAGE DEAD IN % (Rhizoctonia solani; applied alone, 20 ppm AI): 0%
- AVERAGE DEAD IN % (Rhizoctonia solani; [3]): 0%
- AVERAGE DEAD IN % (Rhizoctonia solani; [4]): 0%
- AVERAGE DEAD IN % (Rhizoctonia solani; [5]): 0%
- AVERAGE DEAD IN % (Rhizoctonia solani; [6]): 0%
- AVERAGE DEAD IN % (Rhizoctonia solani; [7]): 0%
- AVERAGE DEAD IN % (Rhizoctonia solani; single compound at 1.25 ppm AI): 0%
- AVERAGE DEAD IN % (Rhizoctonia solani; single compound at 2.5 ppm AI): 0%
- AVERAGE DEAD IN % (Rhizoctonia solani; single compound at 5 ppm AI): 0%
- AVERAGE DEAD IN % (Rhizoctonia solani; single compound at 10 ppm AI): 0%
- AVERAGE DEAD IN % (Rhizoctonia solani; single compound at 20 ppm AI): 0%
- AVERAGE DEAD IN % (Gaeumannomyces graminis; [8]): 0%
- AVERAGE DEAD IN % (Gaeumannomyces graminis; applied alone, 0.078125 ppm AI): 0%
- AVERAGE DEAD IN % (Gaeumannomyces graminis; applied alone, 0.15625 ppm AI): 0%
- AVERAGE DEAD IN % (Gaeumannomyces graminis; applied alone, 0.3125 ppm AI): 0%
- AVERAGE DEAD IN % (Gaeumannomyces graminis; applied alone, 0.625 ppm AI): 0%
- AVERAGE DEAD IN % (Gaeumannomyces graminis; applied alone, 1.25 ppm AI): 0%
- AVERAGE DEAD IN % (Gaeumannomyces graminis; applied alone, 2.5 ppm AI): 0%
- AVERAGE DEAD IN % (Gaeumannomyces graminis; applied alone, 5 ppm AI): 0%
- AVERAGE DEAD IN % (Gaeumannomyces graminis; applied alone, 10 ppm AI): 0%
- AVERAGE DEAD IN % (Gaeumannomyces graminis; applied alone, 20 ppm AI): 0%
- AVERAGE DEAD IN % (Gaeumannomyces graminis; [3]): 0%
- AVERAGE DEAD IN % (Gaeumannomyces graminis; [4]): 0%
- AVERAGE DEAD IN % (Gaeumannomyces graminis; [5]): 0%
- AVERAGE DEAD IN % (Gaeumannomyces graminis; [6]): 0%
- AVERAGE DEAD IN % (Gaeumannomyces graminis; [7]): 0%
- AVERAGE DEAD IN % (Gaeumannomyces graminis; single compound at 1.25 ppm AI): 0%
- AVERAGE DEAD IN % (Gaeumannomyces graminis; single compound at 2.5 ppm AI): 0%
- AVERAGE DEAD IN % (Gaeumannomyces graminis; single compound at 5 ppm AI): 0%
- AVERAGE DEAD IN % (Gaeumannomyces graminis; single compound at 10 ppm AI): 0%
- AVERAGE DEAD IN % (Gaeumannomyces graminis; single compound at 20 ppm AI): 0%
- AVERAGE DEAD IN % ([1]; 0.0390625 ppm AI): 0%
- AVERAGE DEAD IN % ([1]; 0.078125 ppm AI): 0%
- AVERAGE DEAD IN % ([1]; 0.15625 ppm AI): 0%
- AVERAGE DEAD IN % ([1]; 0.3125 ppm AI): 0%
- AVERAGE DEAD IN % ([1]; 0.625 ppm AI): 0%
- AVERAGE DEAD IN % ([1]; 1.25 ppm AI): 0%
- AVERAGE DEAD IN % ([1]; 2.5 ppm AI): 0%
- AVERAGE DEAD IN % ([1]; 5 ppm AI): 0%
- AVERAGE DEAD IN % ([1]; 10 ppm AI): 0%
- AVERAGE DEAD IN % ([1]; 20 ppm AI): 0%
- AVERAGE DEAD IN % A1 (Septoria tritici; 0.0390625 ppm AI): 0%
- AVERAGE DEAD IN % A1 (Septoria tritici; 0.078125 ppm AI): 0%
- AVERAGE DEAD IN % A1 (Septoria tritici; 0.15625 ppm AI): 0%
- AVERAGE DEAD IN % A1 (Septoria tritici; 0.3125 ppm AI): 0%
- AVERAGE DEAD IN % A1 (Septoria tritici; 0.625 ppm AI): 0%
- AVERAGE DEAD IN % A1 (Septoria tritici; 1.25 ppm AI): 0%
- AVERAGE DEAD IN % A1 (Septoria tritici; 2.5 ppm AI): 0%
- AVERAGE DEAD IN % A1 (Septoria tritici; 5 ppm AI): 0%
- AVERAGE DEAD IN % A1 (Septoria tritici; 10 ppm AI): 0%
- AVERAGE DEAD IN % A1 (Septoria tritici; 20 ppm AI): 0%
- AVERAGE DEAD IN % (Septoria tritici; 0.0390625 ppm AI): 0%
- AVERAGE DEAD IN % (Septoria tritici; 0.078125 ppm AI): 0%
- AVERAGE DEAD IN % (Septoria tritici; 0.15625 ppm AI): 0%
- AVERAGE DEAD IN % (Septoria tritici; 0.3125 ppm AI): 0%
- AVERAGE DEAD IN % (Septoria tritici; 0.625 ppm AI): 0%
- AVERAGE DEAD IN % (Septoria tritici; 1.25 ppm AI): 0%
- AVERAGE DEAD IN % (Septoria tritici; 2.5 ppm AI): 0%
- AVERAGE DEAD IN % (Septoria tritici; 5 ppm AI): 0%
- AVERAGE DEAD IN % (Septoria tritici; 10 ppm AI): 0%
- AVERAGE DEAD IN % (Septoria tritici; 20 ppm AI): 0%
- AVERAGE DEAD IN % ([2]; 0.0390625 ppm AI): 0%
- AVERAGE DEAD IN % ([2]; 0.078125 ppm AI): 0%
- AVERAGE DEAD IN % ([2]; 0.15625 ppm AI): 0%
- AVERAGE DEAD IN % ([2]; 0.3125 ppm AI): 0%
- AVERAGE DEAD IN % ([2]; 0.625 ppm AI): 0%
- AVERAGE DEAD IN % ([2]; 1.25 ppm AI): 0%
- AVERAGE DEAD IN % ([2]; 2.5 ppm AI): 0%
- AVERAGE DEAD IN % ([2]; 5 ppm AI): 0%
- AVERAGE DEAD IN % ([2]; 10 ppm AI): 0%
- AVERAGE DEAD IN % (Fusarium culmorum; 0.625 PPM AI): 0%
- AVERAGE DEAD IN % (Fusarium culmorum; 1.25 PPM AI): 0%
- AVERAGE DEAD IN % (Fusarium culmorum; 2.5 PPM AI): 0%
- AVERAGE DEAD IN % (Fusarium culmorum; 5 PPM AI): 0%
- AVERAGE DEAD IN % (Fusarium culmorum; 10 PPM AI): 0%
- AVERAGE DEAD IN % (Fusarium culmorum; 20 PPM AI): 0%
